Data: ChEMBL document CHEMBL1155703, “Sequences and antimycoplasmic properties of longibrachins LGB II and LGB III, two novel 20-residue peptaibols from Trichoderma longibrachiatum” (J Nat Prod, 2001)
≈ marks a conversion by molar mass, not a printed value.

Columns and labels:
Acholeplasma laidlawii = experiment: Antimicrobial activity against Acholeplasma laidlawii PG-8A after 2 hrs; format: functional; settings: for MIC: Acholeplasma laidlawii, PG-8A, 2 h
[1] = test system: Mycoplasmoides gallisepticum; experiment: Antimicrobial activity against Mycoplasma gallisepticum S6 after 2 hrs; format: functional; settings: for MIC: Mycoplasmoides gallisepticum, S6, 2 h
[2] = test system: Mycoplasma mycoides subsp. mycoides SC; experiment: Antimicrobial activity against Mycoplasma mycoides subsp. mycoides SC KH3J after 2 hrs; format: functional
Spiroplasma apis = experiment: Antimicrobial activity against Spiroplasma apis B31 after 2 hrs; format: functional; settings: for MIC: Spiroplasma apis, B31, 2 h
Spiroplasma citri = experiment: Antimicrobial activity against Spiroplasma citri R8A2 after 2 hrs; format: functional; settings: R8A2, 2 h
Spiroplasma floricola = experiment: Antimicrobial activity against Spiroplasma floricola BNR1 after 2 hrs; format: functional; settings: for MIC: Spiroplasma floricola, BNR1, 2 h
[3] = Bilayer membrane permeabilization assessed as lipid to peptide ratio allowing 50% leakage of entrapped carboxyfluorescein from egg phosphatidylcholine-cholesterol liposomes at 1.1 uM at 20 mins by spectrofluorimetry; format: physicochemical
[4] = Bilayer membrane permeabilization assessed as lipid to peptide ratio allowing 50% leakage of entrapped carboxyfluorescein from egg phosphatidylcholine-cholesterol liposomes at 0.21 uM at 20 mins by spectrofluorimetry; format: physicochemical
[5] = Bilayer membrane permeabilization assessed as lipid to peptide ratio allowing 50% leakage of entrapped carboxyfluorescein from egg phosphatidylcholine-cholesterol liposomes at 0.49 uM at 20 mins by spectrofluorimetry; format: physicochemical
[6] = Bilayer membrane permeabilization assessed as lipid to peptide ratio allowing 50% leakage of entrapped carboxyfluorescein from egg phosphatidylcholine-cholesterol liposomes at 0.40 uM at 20 mins by spectrofluorimetry; format: physicochemical; settings: 0.4 µM
[7] = Bilayer membrane permeabilization assessed as lipid to peptide ratio allowing 50% leakage of entrapped carboxyfluorescein from egg phosphatidylcholine-cholesterol liposomes at 0.13 uM at 20 mins by spectrofluorimetry; format: physicochemical
[8] = Bilayer membrane permeabilization assessed as lipid to peptide ratio allowing 50% leakage of entrapped carboxyfluorescein from egg phosphatidylcholine-cholesterol liposomes at 0.36 uM at 20 mins by spectrofluorimetry; format: physicochemical

SMILES	MIC (Acholeplasma laidlawii)	MIC [1]	MIC [2]	MIC (Spiroplasma apis)	MIC (Spiroplasma citri)	MIC (Spiroplasma floricola)	other results
CC[C@@](C)(NC(=O)C(C)(C)NC(=O)[C@@H](NC(=O)[C@@H]1CCCN1C(=O)C(C)(C)NC(=O)[C@H](CC(C)C)NC(=O)CNC(=O)C(C)(C)NC(=O)[C@@H](NC(=O)C(C)(C)NC(=O)[C@H](CCC(N)=O)NC(=O)[C@H](C)NC(=O)C(C)(C)NC(=O)[C@H](C)NC(=O)C(C)(C)NC(=O)[C@H](C)NC(=O)C(C)(C)NC(C)=O)C(C)C)C(C)C)C(=O)N[C@@H](CCC(=O)O)C(=O)N[C@@H](CCC(N)=O)C(=O)N[C@H](CO)Cc1ccccc1	1.56 µM (≈ 3.05 µg/mL)	6.25 µM (≈ 12.2 µg/mL)	6.25 µM (≈ 12.2 µg/mL)	12.5 µM (≈ 24.4 µg/mL)	6.25 µM (≈ 12.2 µg/mL)	12.5 µM (≈ 24.4 µg/mL)	MLC (Acholeplasma laidlawii): 3.12 µM (≈ 6.09 µg/mL); MLC [1]: 3.12 µM (≈ 6.09 µg/mL); MLC (Spiroplasma apis): 3.12 µM (≈ 6.09 µg/mL); MLC (Spiroplasma floricola): 3.12 µM (≈ 6.09 µg/mL); Ratio [3]: 540
CC[C@@](C)(NC(=O)C(C)(C)NC(=O)[C@@H](NC(=O)[C@@H]1CCCN1C(=O)C(C)(C)NC(=O)[C@H](CC(C)C)NC(=O)CNC(=O)C(C)(C)NC(=O)[C@@H](NC(=O)C(C)(C)NC(=O)[C@H](CCC(N)=O)NC(=O)[C@H](C)NC(=O)C(C)(C)NC(=O)[C@H](C)NC(=O)C(C)(C)NC(=O)[C@H](C)NC(=O)C(C)(C)NC(C)=O)C(C)C)C(C)C)C(=O)N[C@@H](CCC(N)=O)C(=O)N[C@@H](CCC(N)=O)C(=O)N[C@@H](CO)Cc1ccccc1							Ratio [4]: 2860
CC[C@@](C)(NC(=O)C(C)(C)NC(=O)[C@H](C)NC(=O)[C@H](CO)NC(=O)C(C)(C)NC(C)=O)C(=O)N[C@@H](CCC(N)=O)C(=O)NC(C)(C)C(=O)N[C@H](C(=O)NC(C)(C)C(=O)NCC(=O)N[C@@H](CC(C)C)C(=O)NC(C)(C)C(=O)N1CCC[C@H]1C(=O)N[C@@H](CC(C)C)C(=O)NC(C)(C)C(=O)NC(C)(C)C(=O)N[C@@H](CCC(N)=O)C(=O)N[C@H](CO)Cc1ccccc1)C(C)C [listing 1 of 2 here]							Ratio [5]: 1220
CC[C@@](C)(NC(=O)C(C)(C)NC(=O)[C@H](C)NC(=O)[C@H](CO)NC(=O)C(C)(C)NC(C)=O)C(=O)N[C@@H](CCC(N)=O)C(=O)NC(C)(C)C(=O)N[C@H](C(=O)NC(C)(C)C(=O)NCC(=O)N[C@@H](CC(C)C)C(=O)NC(C)(C)C(=O)N1CCC[C@H]1C(=O)N[C@@H](CC(C)C)C(=O)NC(C)(C)C(=O)NC(C)(C)C(=O)N[C@@H](CCC(N)=O)C(=O)N[C@H](CO)Cc1ccccc1)C(C)C [listing 2 of 2 here]	3.12 µM (≈ 5.56 µg/mL)	6.25 µM (≈ 11.1 µg/mL)	12.5 µM (≈ 22.3 µg/mL)	12.5 µM (≈ 22.3 µg/mL)	12.5 µM (≈ 22.3 µg/mL)	25 µM (≈ 44.6 µg/mL)	
CC[C@@](C)(NC(=O)C(C)(C)NC(=O)[C@@H](NC(=O)[C@@H]1CCCN1C(=O)C(C)(C)NC(=O)C(C)(C)NC(=O)CNC(=O)C(C)(C)NC(=O)C(C)(C)NC(=O)[C@H](CC(C)C)NC(=O)C(C)(C)NC(=O)[C@H](CCC(N)=O)NC(=O)C(C)(C)NC(=O)[C@H](C)NC(=O)C(C)(C)NC(=O)[C@H](C)NC(=O)C(C)(C)NC(C)=O)C(C)C)C(=O)N[C@@H](CCC(N)=O)C(=O)N[C@@H](CCC(N)=O)C(=O)N[C@H](CO)Cc1ccccc1							Ratio [6]: 1000
CC[C@@](C)(NC(=O)C(C)(C)NC(=O)[C@@H](NC(=O)[C@@H]1CCCN1C(=O)C(C)(C)NC(=O)[C@H](CC(C)C)NC(=O)CNC(=O)C(C)(C)NC(=O)[C@@H](NC(=O)C(C)(C)NC(=O)[C@H](CCC(N)=O)NC(=O)C(C)(C)NC(=O)C(C)(C)NC(=O)[C@H](C)NC(=O)C(C)(C)NC(=O)[C@H](C)NC(=O)C(C)(C)NC(C)=O)C(C)C)C(C)C)C(=O)N[C@@H](CCC(N)=O)C(=O)N[C@@H](CCC(N)=O)C(=O)N[C@H](CO)Cc1ccccc1	0.78 µM (≈ 1.53 µg/mL)	6.25 µM (≈ 12.3 µg/mL)	6.25 µM (≈ 12.3 µg/mL)	6.25 µM (≈ 12.3 µg/mL)	3.12 µM (≈ 6.13 µg/mL)	6.25 µM (≈ 12.3 µg/mL)	MLC (Acholeplasma laidlawii): 3.12 µM (≈ 6.13 µg/mL); MLC [1]: 3.12 µM (≈ 6.13 µg/mL); MLC (Spiroplasma apis): 3.12 µM (≈ 6.13 µg/mL); MLC (Spiroplasma floricola): 3.12 µM (≈ 6.13 µg/mL); Ratio [7]: 4545
CC[C@@](C)(NC(=O)C(C)(C)NC(=O)[C@@H](NC(=O)[C@@H]1CCCN1C(=O)C(C)(C)NC(=O)[C@H](CC(C)C)NC(=O)CNC(=O)C(C)(C)NC(=O)[C@@H](NC(=O)C(C)(C)NC(=O)[C@H](CCC(N)=O)NC(=O)[C@H](C)NC(=O)C(C)(C)NC(=O)[C@H](C)NC(=O)C(C)(C)NC(=O)[C@H](C)NC(=O)C(C)(C)NC(C)=O)C(C)C)C(C)C)C(=O)N[C@@H](CCC(=O)O)C(=O)N[C@@H](CCC(N)=O)C(=O)N[C@H](COC)Cc1ccccc1							Ratio [8]: 2500
